{"source": "patent US20190298664A1", "about": "“METHOD AND KIT FOR MYOCARDIAL REPERFUSION, AND METHOD FOR ATTENUATING OR REDUCING MYOCARDIAL REPERFUSION INJURY” (Academia Sinica, priority 2018, published 2019)", "key": {"I/R mice": {"tested_on": "I/R mice", "assay": "Echocardiography (ejection fraction) in I/R mice", "assay_type": "in vivo, mouse", "settings": "2 mg/kg IP", "procedure": "We anesthetized the mouse with 5% isoflurane mixed with room air until loss of sensation of pain and then maintained the mouse in anesthesia status with 2% isoflurane mixed with room air through the whole procedure. The mouse's body temperature was maintained at 37° C. by a heating pad. After the mouse was intubated, we provided artificial ventilation to the mouse with a small animal ventilator. Then the chest cavity was opened at the second intercostal space and homemade chest retractors were utilized to widen the incision. We pulled the pericardium apart carefully and exposed the left anterior descending artery (LAD). A 7-0 silk was put underneath the LAD at the position of the tip of the left auricle, a 6 mm length of PE-10 tube was put on the surface of the LAD, and then a double knot was made to occlude the blood flow of LAD. The success of ligation was confirmed by […] anterior wall of the LV. For the reperfusion group, the LAD knot would be untied for the purpose of reperfusion after 1 hour of ischemia. For the sham operation group, all procedures were the same except for the knot that occluded the LAD flow. After the successful procedure, we left the silk in situ, closed the chest cavity and weaned the animal from the ventilator. At 1 day and 1 week post the indicated I/R episode, the mice were received echocardiography for evaluating the cardiac function. […]"}, "myocardial PTP activity": {"tested_on": "myocardial PTP activity", "assay": "Overall myocardial PTP activity by pNPP assay in heart extracts of I/R mice", "assay_type": "in vivo, mouse", "settings": "2 mg/kg IP ten min before reperfusion; four hours post-I/R", "procedure": "We anesthetized the mouse with 5% isoflurane mixed with room air until loss of sensation of pain and then maintained the mouse in anesthesia status with 2% isoflurane mixed with room air through the whole procedure. The mouse's body temperature was maintained at 37° C. by a heating pad. After the mouse was intubated, we provided artificial ventilation to the mouse with a small animal ventilator. Then the chest cavity was opened at the second intercostal space and homemade chest retractors were utilized to widen the incision. We pulled the pericardium apart carefully and exposed the left anterior descending artery (LAD). A 7-0 silk was put underneath the LAD at the position of the tip of the left auricle, a 6 mm length of PE-10 tube was put on the surface of the LAD, and then a double knot was made to occlude the blood flow of LAD. The success of ligation was confirmed by […] anterior wall of the LV. For the reperfusion group, the LAD knot would be untied for the purpose of reperfusion after 1 hour of ischemia. For the sham operation group, all procedures were the same except for the knot that occluded the LAD flow. […] The released p-nitrophenolate ion is measured by spectrophotometry reading the absorbance at 405 nm. […]"}, "PTP-PEST": {"target": "T1, PTP-PEST (Homo sapiens, UniProt Q05209)", "T1 construct": "PTP PEST Catalytic Domain construct (Amino Acid:1-300) with 6 His tag at N-terminal; 6 His (N, cleaved yes); made in house; host or cells: Sf9 insect cells (Sf9-VECL-01), Bac-to-Bac baculovirus system", "T1 sequence (Q05209 1-300)": "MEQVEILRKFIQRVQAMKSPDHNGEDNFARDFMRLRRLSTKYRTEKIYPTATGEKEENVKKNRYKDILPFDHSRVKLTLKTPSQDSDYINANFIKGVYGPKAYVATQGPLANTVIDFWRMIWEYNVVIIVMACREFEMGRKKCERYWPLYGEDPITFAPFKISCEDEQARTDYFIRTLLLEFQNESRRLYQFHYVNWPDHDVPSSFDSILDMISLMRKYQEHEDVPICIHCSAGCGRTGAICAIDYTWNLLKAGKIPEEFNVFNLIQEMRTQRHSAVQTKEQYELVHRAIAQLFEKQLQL", "assay": "Thermal stability of PTP-PEST by differential scanning fluorimetry and differential scanning calorimetry", "settings": "in the presence of Auranofin; apo form shows a single unfolding event"}, "[1]": {"tested_on": "myocardial protein tyrosine phosphorylation", "assay": "Immunoblotting of heart extracts of I/R mice (anti-pTyr, p-Paxillin, p-p130cas, p-ErbB-2)", "assay_type": "in vivo, mouse", "settings": "2 mg/kg IP ten min before reperfusion; four hours post-I/R", "procedure": "We anesthetized the mouse with 5% isoflurane mixed with room air until loss of sensation of pain and then maintained the mouse in anesthesia status with 2% isoflurane mixed with room air through the whole procedure. The mouse's body temperature was maintained at 37° C. by a heating pad. After the mouse was intubated, we provided artificial ventilation to the mouse with a small animal ventilator. Then the chest cavity was opened at the second intercostal space and homemade chest retractors were utilized to widen the incision. We pulled the pericardium apart carefully and exposed the left anterior descending artery (LAD). A 7-0 silk was put underneath the LAD at the position of the tip of the left auricle, a 6 mm length of PE-10 tube was put on the surface of the LAD, and then a double knot was made to occlude the blood flow of LAD. The success of ligation was confirmed by paling the anterior wall of the LV. For the reperfusion group, the LAD knot would be untied for the purpose of reperfusion after 1 hour of ischemia. For the sham operation group, all procedures were the same except for the knot that occluded the LAD flow. After the successful procedure, we left the silk in situ, closed the chest cavity and weaned the animal from the ventilator.\nHearts from mice received different treatment were gently homogenized in ice-cold RIPA buffer [250 mM Tris-HCl pH 7.4, 750 mM NaCl, detergent mix (5% NP-40, 2.5% Na-deoxycholate and 0.5% SDS), and 1× protease inhibitor cocktail (EDTA free)] containing phosphatase inhibitors (2 mM Na3VO4, 10 mM NaF, and 10 mM Na2P2O7). The homogenates were centrifuged at 16,100×g at 4° C. for 10 minutes to remove the debris. Protein concentrations were determined by Bradford protein assay. Equal amounts of protein extract from those mice were separated by SDS-PAGE on an 8% or 10% polyacrylamide gel and then transferred to PVDF membrane. Membranes were incubated with indicated primary antibody at 4° C. overnight followed by incubated with secondary antibodies for 1 hour at room temperature. The protein abundance was detected by the signal intensity of each specific band."}}, "data": [{"smiles": "CC(=O)OC[C@H]1O[C@@H]([S-])[C@H](OC(C)=O)[C@@H](OC(C)=O)[C@@H]1OC(C)=O.CCP(CC)CC.[Au+]", "note": "[Auranofin, auranofin]", "values": [{"measurement": "Cardiac ejection fraction", "setting": "I/R mice; one day post-MI", "value": "significant improvement"}, {"measurement": "Restoration of cardiac performance judged by echocardiography", "setting": "I/R mice; one week post-MI", "value": "sustained up to one week"}, {"measurement": "Overall myocardial PTP activity", "setting": "myocardial PTP activity", "value": "significantly suppressed"}, {"measurement": "Unfolding events of PTP-PEST (DSF and DSC)", "setting": "PTP-PEST", "value": "two unfolding events"}, {"measurement": "Decreased protein tyrosine phosphorylation in the I/R heart (anti-pTyr)", "setting": "[1]", "value": "reversed"}, {"measurement": "I/R-induced decrease of pTyr signaling in Paxillin and p130Cas", "setting": "[1]", "value": "restored"}, {"measurement": "I/R-suppressed phosphorylation of Tyr1248 in ErbB-2", "setting": "[1]", "value": "restored"}]}]}
